{"source": "paper PMC9934914", "about": "“A novel class of sulphonamides potently block malaria transmission by targeting a Plasmodium vacuole membrane protein” (Disease Models & Mechanisms, 2023)", "key": {"[1]": {"target": "T1, Pfs16 (Plasmodium falciparum, UniProt Q6ZMA7)", "T1 construct": "native full-length protein in stage V gametocytes or their Triton X-100 lysate; 157 residues, 16 kDa, one TM domain", "T1 sequence (Q6ZMA7 26-157)": "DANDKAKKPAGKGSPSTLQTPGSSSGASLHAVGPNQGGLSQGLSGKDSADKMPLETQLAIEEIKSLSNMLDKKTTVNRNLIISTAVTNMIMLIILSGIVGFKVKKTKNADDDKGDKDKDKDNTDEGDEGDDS", "assay": "CETSA melt curve with immunoblot", "type": "biochemical", "settings": "100 µM compound"}, "[2]": {"target": "T1, Pfs16", "assay": "photoaffinity labelling of live gametocytes, pulldown, TMT LC-MS/MS and immunoblot", "type": "cell-based", "settings": "covalent (aryl azide photo-crosslink, 254 nm); 2.5 to 10 µM probe, 37 °C"}}}
{"smiles": "O=S(=O)(NCC1(O)CCOc2ccccc21)c1cccc(Br)c1", "note": "(single isomer, unassigned; (-)) [(−)-DDD01028076]", "values": [{"measurement": "Tm shift", "setting": "[1]; pH 7.5, stage V gametocyte lysate", "result": "A shift in the Pfs16 melting curve was also evident in the presence of (−)-DDD01028076"}]}
{"smiles": "O=S(=O)(NCC1(O)CCOc2ccccc21)c1ccc(Br)s1", "note": "(stereo not drawn) [DDD01035881]", "values": [{"measurement": "Tm shift", "setting": "[1]; pH 7.5, activated stage V gametocyte lysate, also isothermal dose response at 78.4 °C, 1 nM to 100 µM", "result": "DDD01035881 treatment clearly resulted in a positive shift in the Pfs16 melting curve"}]}
{"smiles": "C#Cc1ccc2c(c1)C(O)(CNS(=O)(=O)c1cccc(N=[N+]=[N-])c1)CCO2", "note": "(stereo not drawn) [compound 2, probe 2]", "values": [{"measurement": "photoaffinity labelling of live gametocytes, pulldown, TMT LC-MS/MS and immunobl", "setting": "[2]", "result": "a dose-dependent pulldown of Pfs16 was clearly observed"}]}
